Values of other authors, collected in publication PMC7113793 (Antiviral Research, 2017).

Key:
aldehyde dehydrogenase = conditions: in vivo
[1] = target: Giardia lamblia carbamate kinase
[2] = target: Citrullus vulgaris urease; conditions: read-out: Kis

SMILES	enzyme inhibition as compared to the activity of the control (aldehyde dehydrogenase) [%]	IC50 [1] [nM]	Ki [2] [µM]	loss of PL^pro activity (PL^pro) [%]
CCN(CC)C(=S)SSC(=S)N(CC)CC [disulfiram]	77	600 to 1400	67.6	–
O=C(O)CN(CCN(CC(=O)O)CC(=O)O)CC(=O)O [EDTA]	–	–	–	62
